Like-named read-outs stand apart in the source and are kept apart here.
What was measured:
[1] = tested on: HepG2 cells; assay: Survival (MTT) cytotoxicity assay in HepG2 cells under normoxic or hypoxic conditions; type: cell-based; settings: for IC50: Homo sapiens, MTT assay; for toxicity in hypoxic versus normoxic exposure: transient exposure to hypoxic conditions
Procedure: Cell Culture and Cytotoxicity Assays. HepG2 cells (passage 2 from frozen stock) were cultured in RPMI 1640 containing 10% FBS. The tests were performed in 96-well plates with stock cells split equally into duplicate plates—one for normoxic and the other for hypoxic conditions. The drug(s) or vehicle (0.1% DMSO) was applied to the cells in log-exponential growth phase under normoxic conditions (5% CO2; 37 C) for 48 hours or under normoxic conditions (22 hr) followed by 2 hr hypoxic conditions (1% O2, 5% CO2, 94% N2 at 37° C.) then followed by reoxygenation for 24 hrs. For the hypoxia experiments, a glove chamber with two-way pressure value and one-way N2 inflow was used. Hypoxia conditions were met using methylene blue dye indicator (i.e. 0.015% methylene blue, 6% dextrose, 6 mM NaOH) which correlated with the O2 pressure in the glove box when measured continuously with a Clark-type electrode.^13
At 48 hrs, a tetrazolium component (MTT) assay (Promega, Madison, Wis.; Cell Titer 96 Non-Radioactive Cell Proliferation Assay) was performed following an established protocol in the laboratory. Since these assays depend on mitochondrial function, which may be affected by the state of oxygenation, clonogenic assays to verify survival function were also performed. It is important to note that the data presented for the MTT assay normalizes the OD595 for the drug treated wells (minus background) to its own vehicle treated well(s) under either normoxic or hypoxic conditions. These values are then plotted as a percentage (×100%) surviving 48 hrs of drug(s) or vehicle treatment under the said condition. These analyses have also been performed previously for other hypoxia studies.^14,15

[2] = tested on: HepG2 cells; assay: HepG2 clonogenic assay (colony count) under normoxic or hypoxic conditions; type: cell-based; settings: for cells dead / colonies dead: hypoxic conditions; for cells dead / cells dead compared with controls: 50 μM; for cells dead: p<0.00001 vs control treated hypoxic conditions; for colonies dead / colonies alive relative to controls: ~10 μM; for colonies dead: p<0.001 vs control treated cells; for cells dead compared with controls / colonies alive relative to controls: normoxic cells; for colonies alive relative to controls: FIG. 5
Procedure: In the HepG2 clonogenic assays, 3.5×10^3 per well were seeded in 6-well plates using RPMI1640 and 10% FBS. After 24 hrs of growth at 37° C., the cells were exposed to vehicle or drug(s). After 10 days incubation with drug(s) or control, the wells were washed with PBS twice, then fixed in 10% acetic acid for 10 min, then stained with crystal violet for 10 min, and finally rinsed with distilled water at room temperature. The colonies (>50 μm likely representing >50 cells) were then visually counted in randomly chosen 1-mm×1-mm grid repeated three times. Statistical analyses of the mean number of colonies were performed by using the Mann-Whitney t test, with significant differences established as P<0.05 as previously published by the laboratory.^16 For the hypoxia conditions, after 24 hr growth in normoxic conditions as above, the vehicle or drug(s) treated cells were exposed to hypoxic environment (1% O2, 5% CO2, 94% N2 at 37° C.) for 5 hrs, followed by re-oxygenation (5% CO2; 37° C.) for the remaining 10 days.

[3] = 22 hr normoxia, 2 hr hypoxia (1% O2), reoxygenation 24 hrs, read-out: IC50 (hypoxia)
[4] = normoxic conditions 48 hours, read-out: IC50 (normoxia)

SMILES | IC50 [1, 3] [µM] | IC50 [1, 4] [µM] | toxicity in hypoxic versus normoxic exposure [1] | cells dead [2] [%] | colonies dead [2] [%] | cells dead compared with controls [2] [%] | colonies alive relative to controls [2] [%]
c1ccc(C2=Nc3ccccc3OC2)cc1 [Compound 3] | 10.8 ± 1.4 | 87 ± 1.3 | significantly more toxic to hypoxic exposure than to normoxic exposure | ~98 | ~71 | ~12 | ~105
Clc1ccc2c(c1)N=C(c1ccccc1)CO2 [Compound 4] | 30 ± 2.4 | 78 ± 1.2 |  |  |  |  | 
O=[N+]([O-])c1ccc2c(c1)N=C(c1ccc(Cl)cc1)CO2 [Compound 7] | 20 ± 1.2 | 78 ± 1.4 | significantly more toxic to hypoxic exposure than to normoxic exposure | ~83 | ~28 | ~11 | ~110
Clc1ccc(C2=Nc3ccc(Cl)cc3OC2)cc1 [Compound B47.2] | 28 ± 1.6 | 88 ± 2.4 |  |  |  |  | 
Cc1ccc2c(c1)N=C(c1ccc(Cl)cc1)CO2 [Compound B47.4] | 87 ± 1.8 | > 600 |  |  |  |  | 
